From ChEMBL document CHEMBL1201862, “PubChem BioAssay data set” (2004) come the findings set out here.

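Compound exposure: 48 hours, 5 concentrations, 96-well plates. Here, GI50 denotes the concentration required for 50% inhibition of growth.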 Activity calls are given as the source filed them. Rule as the data show it: active = GI50 up to about 1.1 µM and inactive = higher.

Among the test systems are A498; CAKI-1; EKVX; HCT-15; HOP-62; IGROV-1; KM12; NCI-H23; NCI-H522; OVCAR-3; OVCAR-4; SF-539; SNB-19; SNB-75; U-251; UACC-257; UACC-62; M14.
Test in all cases: growth of human tumour cells (NCI), 48 h

As for `C=C/C(C)=C/[C@H](C)C(=O)C[C@H](O)CC1CC(=O)NC(=O)C1`, the GI50 in the test on A498 is 30.9 µM (inactive); in the test with CAKI-1, 13.6 µM (inactive); in the test with EKVX, 24.1 µM (inactive); in the test with HCT-15, 44.7 µM; with HOP-62, 19.2 µM (inactive); with IGROV-1, 19.9 µM (inactive). In addition, the GI50 in the test on KM12 is 32.7 µM (inactive); in the test on NCI-H23 it was 36.9 µM (inactive); with NCI-H522 it was 21.2 µM (inactive); in the test with OVCAR-3 it was 49.2 µM (inactive); in the test with OVCAR-4 it was 19.6 µM (inactive); in the test on SF-539, 35.1 µM (inactive). In addition, the GI50 is 18.7 µM (inactive) with SNB-19; > 55.8 µM (inactive) with SNB-75; 34.5 µM (inactive) in the test with U-251; 30.1 µM (inactive) with UACC-257; 37.2 µM (inactive) in the test with UACC-62.

Turning to `N/C(=N\O)N/N=C\c1cc([N+](=O)[O-])cc([N+](=O)[O-])c1O`, the GI50 in the test with A498 is > 23.2 µM (inactive); in the test on CAKI-1, 5.66 µM (inactive); with EKVX, > 100 µM (inactive); in the test on HCT-15 it was 6.14 µM; with HOP-62 it was 4.22 µM (inactive); in the test with KM12 it was 2.94 µM (inactive). Further, the GI50 with NCI-H23 was 28.8 µM (inactive); with NCI-H522, 12.5 µM (inactive); with OVCAR-3, 59.3 µM (inactive); in the test on OVCAR-4, > 96.2 µM (inactive); in the test on SF-539 it was 18.4 µM (inactive); with SNB-19, > 96.2 µM (inactive). Further, the figures for the GI50 in the test on U-251, in the test on UACC-257 and in the test with UACC-62 were 10.5 µM (inactive), 98.2 µM (inactive) and 1.58 µM (inactive), respectively.

For the molecule `Cc1c(N=NN(C)C)cc[n+]([O-])c1C`, the GI50 in the test with A498 is > 100 µM (inactive); in the test on CAKI-1 it was > 100 µM (inactive); with EKVX, > 100 µM (inactive); in the test with HCT-15, above 100 µM; in the test with HOP-62 it was > 100 µM (inactive); in the test with IGROV-1, > 100 µM (inactive). The GI50 in the test on KM12, with NCI-H23, with NCI-H522, with OVCAR-3, with OVCAR-4 and in the test on SF-539 was > 100 µM (inactive) in each case. Further, the GI50 in the test on SNB-19 was > 100 µM (inactive); with SNB-75 it was > 49.7 µM (inactive); in the test with U-251, > 100 µM (inactive); in the test with UACC-257 it was > 100 µM (inactive); in the test with UACC-62 it was > 100 µM (inactive).

On to `COP(=O)(OC)[C@H](O)[C@H]1C[C@@H]1c1ccccc1`, for which the GI50 was > 100 µM (inactive) with A498; > 100 µM (inactive) with CAKI-1; > 100 µM (inactive) in the test with EKVX; above 100 µM in the test on HCT-15; > 100 µM (inactive) with HOP-62; > 100 µM (inactive) in the test with IGROV-1. In addition, the GI50 with KM12, with M14, in the test with NCI-H23, with NCI-H522, in the test on OVCAR-3 and with OVCAR-4 was > 100 µM (inactive) each time. The GI50 with SNB-19, in the test on SNB-75, with U-251, in the test on UACC-257 and in the test with UACC-62 was > 100 µM (inactive) throughout.

Regarding `COc1cc(C2c3cc4c(cc3[C@@H](Nc3cccc(C(C)=O)c3)C3COC(=O)[C@H]23)OCO4)cc(OC)c1O` (stereo partly specified), the GI50 in the test with A498 was 0.236 µM (active); in the test with CAKI-1 it was 0.108 µM (active); in the test on EKVX, 2.21 µM (inactive); in the test with HCT-15, 0.307 µM; in the test on HOP-62 it was 0.122 µM (active); with IGROV-1 it was 3.03 µM (inactive). Besides, the GI50 in the test on KM12 was 1.59 µM (inactive); in the test on NCI-H23, 0.264 µM (active); in the test with NCI-H522, 1.39 µM (inactive); in the test on OVCAR-3 it was 1.91 µM (inactive); in the test with OVCAR-4, 6.17 µM (inactive); in the test with SF-539 it was 0.243 µM (active). Besides, the GI50 in the test with SNB-19 was 0.236 µM (active); in the test on SNB-75, 0.838 µM (active); in the test with U-251, 0.245 µM (active); in the test on UACC-257, 1.05 µM (active); in the test on UACC-62 it was 0.233 µM (active).

Consider `N#C/C(=C\c1cccc(O)c1O)C(N)=O`, for which the GI50 with A498 was 74.3 µM (inactive); in the test on CAKI-1, 41.3 µM (inactive); in the test with EKVX, 34.8 µM (inactive); in the test with HCT-15, 57.8 µM; in the test on HOP-62 it was 68.9 µM (inactive); in the test with IGROV-1 it was 93.1 µM (inactive). In addition, the GI50 was 36.3 µM (inactive) in the test with KM12; 67.1 µM (inactive) with M14; 34.8 µM (inactive) with NCI-H23; 21 µM (inactive) in the test with NCI-H522; 40.9 µM (inactive) in the test with OVCAR-3; 62.4 µM (inactive) with OVCAR-4. The GI50 is 34 µM (inactive) with SF-539; 57.5 µM (inactive) in the test with SNB-19; 9.57 µM (inactive) in the test with SNB-75; 61.4 µM (inactive) with U-251; 39.5 µM (inactive) in the test with UACC-257; 35.2 µM (inactive) in the test with UACC-62.

For the molecule `COc1ccc(C2C(C(=O)O)=C(COC(C)=O)Oc3cc4c(cc32)OCO4)cc1` (stereo unspecified), the GI50 is > 100 µM (inactive) with CAKI-1; > 100 µM (inactive) in the test with EKVX; above 100 µM in the test on HCT-15; > 100 µM (inactive) in the test on HOP-62; > 100 µM (inactive) in the test with IGROV-1; > 100 µM (inactive) in the test on M14. Besides, the GI50 in the test on NCI-H23, with OVCAR-3, in the test with OVCAR-4, with SNB-19, in the test on SNB-75 and in the test on U-251 was > 100 µM (inactive) each time. The GI50 with UACC-257 and in the test on UACC-62 was > 100 µM (inactive) throughout.

With `COc1ccc2cc1Oc1ccc(cc1)C[C@H]1c3cc(c(OC)cc3CCN1C)Oc1c(O)c(OC)cc3c1[C@H](C2)N(C)CC3` [FANGCHINOLINE], the GI50 with A498 is 18 µM (inactive); in the test with CAKI-1 it was 3.54 µM (inactive); in the test with EKVX, 4.45 µM (inactive); in the test on HCT-15 it was 13.3 µM; in the test with HOP-62, 37.6 µM (inactive); in the test on IGROV-1 it was 27.1 µM (inactive). Also, the GI50 is 16.8 µM (inactive) in the test with KM12; 40 µM (inactive) in the test on NCI-H23; 27.5 µM (inactive) in the test on NCI-H522; 21.6 µM (inactive) in the test with OVCAR-3; 26.5 µM (inactive) in the test on OVCAR-4; 20.3 µM (inactive) in the test with SF-539. Further, the GI50 in the test on SNB-19 is 43.8 µM (inactive); in the test with SNB-75, 28.7 µM (inactive); in the test on U-251, 27.2 µM (inactive); in the test on UACC-257 it was 9.48 µM (inactive); in the test on UACC-62, 20.7 µM (inactive).

For the molecule `C/C([O-])=C(/c1nc(-c2ccc([N+](=O)[O-])o2)no1)[n+]1cc(C)ccc1C`, the GI50 in the test with A498 was 18.3 µM (inactive); in the test with CAKI-1, 14.3 µM (inactive); in the test on EKVX, 58.6 µM (inactive); in the test with HCT-15, 7.03 µM; in the test with HOP-62 it was 22.7 µM (inactive); in the test with IGROV-1, 29 µM (inactive). Moreover, the GI50 is 5.82 µM (inactive) with KM12; 12.1 µM (inactive) in the test with NCI-H23; 3.57 µM (inactive) in the test with NCI-H522; 19.6 µM (inactive) in the test on OVCAR-3; 25.1 µM (inactive) in the test with OVCAR-4; 4.99 µM (inactive) in the test on SF-539. The GI50 in the test with SNB-19 is 26.7 µM (inactive); in the test with SNB-75, 17.8 µM (inactive); in the test with U-251 it was 8.11 µM (inactive); in the test with UACC-257, 11.9 µM (inactive); in the test with UACC-62, 7.21 µM (inactive).

Turning to `COc1cc(C2c3cc4c(cc3[C@@H](Nc3ccc(N5CCOCC5)cc3)C3COC(=O)[C@H]23)OCO4)cc(OC)c1O` (stereo partly specified), the GI50 is 1.01 µM (active) in the test on A498; 0.4 µM (active) with CAKI-1; 1.97 µM (inactive) with EKVX; 0.993 µM with HCT-15; 0.274 µM (active) in the test with HOP-62; 4.01 µM (inactive) with IGROV-1. Further, the GI50 was 1.41 µM (inactive) in the test with NCI-H522; 2.86 µM (inactive) with OVCAR-3; 9.84 µM (inactive) in the test on OVCAR-4; 0.571 µM (active) with SF-539; 0.2 µM (active) in the test with SNB-19; 5.19 µM (inactive) with SNB-75. Besides, the GI50 was 0.214 µM (active) with U-251 and 0.525 µM (active) in the test on UACC-62.

For `C#CC[C@@]12CC(=O)C[C@@H]1CCC1(C2)OCCO1.C#CC[C@]12CC(=O)CC[C@H]1CC(=O)C2`, the GI50 in the test on A498 is > 100 µM (inactive); in the test with EKVX it was > 100 µM (inactive); in the test with HCT-15 it was above 100 µM; with HOP-62, > 100 µM (inactive); in the test with IGROV-1, > 100 µM (inactive); with KM12 it was > 100 µM (inactive). Also, the GI50 in the test with NCI-H23, in the test on NCI-H522, with OVCAR-3, in the test on OVCAR-4, with SF-539 and in the test on SNB-19 was > 100 µM (inactive) throughout. The GI50 in the test with SNB-75 is 97.7 µM (inactive); in the test on U-251, > 100 µM (inactive); in the test with UACC-257 it was 90.8 µM (inactive); with UACC-62, 95.5 µM (inactive).

For `CCCCCCCCCCCC1=C(O)C(=O)C=C(O)C1=O` [EMBELIN], the GI50 was 5.75 µM (inactive) with A498; 4.26 µM (inactive) in the test with CAKI-1; 7.31 µM (inactive) in the test on EKVX; 5.11 µM in the test with HCT-15; 5.56 µM (inactive) with HOP-62; 6.76 µM (inactive) in the test with IGROV-1. Moreover, the GI50 is 6.38 µM (inactive) with KM12; 7.05 µM (inactive) in the test with NCI-H23; 8.95 µM (inactive) in the test on NCI-H522; 4.71 µM (inactive) in the test on OVCAR-3; 10 µM (inactive) with OVCAR-4; 6.76 µM (inactive) in the test with SF-539. In addition, the GI50 in the test with SNB-19 was 16.3 µM (inactive); in the test with SNB-75, 6.31 µM (inactive); in the test on U-251, 5.02 µM (inactive); with UACC-257 it was 6.17 µM (inactive); in the test with UACC-62, 4.11 µM (inactive).
